From patent US12569453B2, “Use of tapinarof for the treatment of atopic dermatitis” (Dermavant Sciences GmbH, priority 2018, dated 2026)
Marks after values point to notes of the source that are not given here.

Tested on: adult subjects with psoriasis
Test: Phase II/2b clinical study in plaque psoriasis: efficacy and patient-reported outcomes
Type: in vivo, human
Conditions: for PGA response rate (primary endpoint): interim analysis; for subjects with ≥4 improvement in pruritus NRS score from baseline: baseline NRS score ≥4; for PGA response rate (PGA 0 or 1 and ≥2-grade improvement): mITT OC; for PGA treatment success: Week 16 (4 weeks after end of treatment)
Text: This was a multicenter (United States, Canada, and Japan), randomized, double-blind (Sponsor-unblind), vehicle-controlled, 6-arm, parallel-group, dose-finding study in adult subjects with psoriasis. Certain study personnel at each site were unblinded to dose-frequency.
The study consisted of 3 periods: up to 4 weeks Screening, 12 weeks double-blind treatment, and 4 weeks post-treatment follow-up. Study visits occurred at Screening; Baseline; weeks 1, 2, 4, 8, and 12 during the treatment period; and 2 and 4 weeks after the last application of study treatment (i.e., at weeks 14 and 16). Additional visits could occur, as needed, for early withdrawals or to follow-up on any skin reactions or ongoing AEs. A subject's total duration of study participation was approximately 16 to 20 weeks.
Two concentrations of Tapinarof cream (0.5% and 1%) and a vehicle control were evaluated following application to all psoriasis lesions (except on the scalp) once (QD) or twice daily (BID) for 12 weeks. There were no planned dose adjustments during the study.
Efficacy was assessed by using a 5-point static Physician Global Assessment (PGA) (0-4 scale), the Psoriasis Area and Severity Index (PASI), % BSA involvement, target lesion assessments (erythema, scaling, and plaque thickness), and subject-reported itch/pruritus severity using a numeric rating scale (NRS) (from the Psoriasis Symptom Diary [PSD]). Additional subject-reported outcomes included the daily PSD (which also contained severity and bother items for 3 additional symptoms). Investigator global impression of change item (assessing change in severity of psoriasis symptoms) and 2 subject global impressions of change items (assessing change in severity of psoriasis symptoms and change in severity of itch/pruritus) were also assessed.
Physician Global Assessment: The PGA is a clinical tool for assessing the current state/severity of a subject's psoriasis. It is a static 5-point morphological assessment of overall disease severity, as determined by the investigator, using the clinical characteristics of erythema, plaque thickness, and scaling as guidelines. At each specified time point, the PGA is made without reference to previous scores. Variations of the PGA are frequently used in clinical studies because it is a simple assessment that is more similar to the assessments actually used in clinical practice. Scoring system ranges from 0 (=Clear) to 4 (=Severe).
Psoriasis Area and Severity Index: The PASI scoring system is a widely-used standard clinical tool for assessing the severity of psoriasis that takes into account the overall severity of erythema (redness), thickness (induration), and scale, as well as the extent of BSA affected with psoriasis. The 3 clinical signs are each graded on a 5 point scale (0 to 4) and the % BSA affected is scored on a 7-point scale (0 to 6) for each of the 4 specified body regions (head, upper extremities, trunk, and lower extremities). The individual scores are multiplied by a weighted factor for each body region; the sum of these scores gives the overall PASI score. Higher scores indicate more severe disease. PASI is a static assessment made without reference to previous scores.
Body Surface Area: The extent of BSA affected by psoriasis is a general indicator of disease severity and was measured throughout the study. The extent of BSA to which study treatment was applied was also recorded. For the purpose of approximate clinical estimation, the total palmar surface of the palm plus 5 digits was assumed to be approximately equivalent to 1% BSA.
Target Lesion Grading: A single target lesion was selected at Baseline to assess efficacy in treating a discrete area rather than an overall average of all areas. For that lesion, the severity of erythema, scaling, and plaque thickness was assessed by the investigator on a 5-point scale ranging from “0=none” to “4=severe”. […]

With `CC(C)c1c(O)cc(/C=C/c2ccccc2)cc1O` [Tapinarof, 3,5-Dihydroxy-4-isopropyl-trans-stilbene] the “difference in PGA response rate, active minus vehicle” value (“difference … active minus vehicle” below) (0.5% BID-vehicle BID, Week 12) was 35.6%, the “PGA response at Week 12” value (0.5% BID, 1 to <10% BSA affected at baseline) was 33% and the “Target lesion Erythema, percent change from Baseline (Mean)” value (“Target lesion Erythema, percent change” for short) (0.5% BID, Early WD) was −25.00%. For the same compound, the “Target lesion Plaque thickness, percent change from Baseline (Mean)” value (0.5% BID, Early WD) was −33.33%, the “Target lesion Scaling, percent change from Baseline (Mean)” value (shortened to “Target lesion Scaling, percent change”) (0.5% BID, Early WD) was −41.67% and the “PGA response at Week 12” value (0.5% BID, Fitzpatrick skin type I/II) was 50%. For the same compound, the “PGA response at Week 12” value (0.5% BID, Fitzpatrick skin type III/IV) was 60%, the “PGA response at Week 12” value (0.5% BID, Fitzpatrick skin type V/VI) was 25% and the “Target lesion Erythema, percent change” value (0.5% BID, Follow-up Week 14) was −68.25%. The “Target lesion Plaque thickness, percent change from Baseline (Mean)” value (0.5% BID, Follow-up Week 14) was −67.86%, the “Target lesion Scaling, percent change” value (0.5% BID, Follow-up Week 14) was −68.65% and the “Target lesion Erythema, percent change” value (0.5% BID, Follow-up/Week 16) was −59.47%. For the same compound, the “Target lesion Plaque thickness, percent change from Baseline (Mean)” value (0.5% BID, Follow-up/Week 16) was −54.92%, the “Target lesion Scaling, percent change” value (0.5% BID, Follow-up/Week 16) was −57.95% and the “Target lesion Erythema, percent change” value (0.5% BID, Week 1) was −9.95%. For the same compound, the “Target lesion Plaque thickness, percent change from Baseline (Mean)” value (0.5% BID, Week 1) was −14.52%, the “Target lesion Scaling, percent change” value (0.5% BID, Week 1) was −12.37% and the “Target lesion Erythema, percent change” value (0.5% BID, Week 2) was −23.61%. The “Target lesion Plaque thickness, percent change from Baseline (Mean)” value (0.5% BID, Week 2) was −33.89%, the “Target lesion Scaling, percent change” value (0.5% BID, Week 2) was −35.00% and the “Target lesion Erythema, percent change” value (0.5% BID, Week 4) was −45.54%. The “Target lesion Plaque thickness, percent change from Baseline (Mean)” value (0.5% BID, Week 4) was −44.64%, the “Target lesion Scaling, percent change” value (0.5% BID, Week 4) was −50.89% and the “Target lesion Erythema, percent change” value (0.5% BID, Week 8) was −62.33%. For the same compound, the “Target lesion Plaque thickness, percent change from Baseline (Mean)” value (0.5% BID, Week 8) was −62.67%, the “Target lesion Scaling, percent change” value (0.5% BID, Week 8) was −60.00% and the “PGA response rate (primary endpoint)” value (0.5% BID, Week 8) was 36%. For the same compound, the “Mean change in nine items of the PSD from baseline” value (0.5% BID, Week 12) was −4.2^‡, the “Mean change in total target lesion grading scores from baseline” value (0.5% BID, Week 12) was −6.2* and the “Target lesion Erythema, percent change” value (0.5% BID, Week 12) was −76.52%. The “Target lesion Plaque thickness, percent change from Baseline (Mean)” value (0.5% BID, Week 12) was −71.59%, the “Target lesion Scaling, percent change” value (0.5% BID, Week 12) was −78.03% and the “subjects with ≥4 improvement in pruritus NRS score from baseline” value (0.5% BID, Week 12) was 56%. The “PGA response rate (PGA 0 or 1 and ≥2-grade improvement)” value (0.5% BID, Week 12) was 46%, the PASI50 response rate (0.5% BID, Week 16) was 62% and the PASI75 response rate (0.5% BID, Week 16) was 46%. For the same compound, the PASI90 response rate (0.5% BID, Week 16) was 27%, the PGA treatment success (0.5% BID) was 35% and the “PGA response at Week 12” value (0.5% BID, psoriasis duration 5 years to <10 years) was 20%. For the same compound, the “PGA response at Week 12” value (0.5% BID, psoriasis duration 6 months to <5 years) was 50%, the “PGA response at Week 12” value (0.5% BID, psoriasis duration ≥10 years) was 53% and the “PGA response at Week 12” value (0.5% BID, ≥10% BSA affected at baseline) was 75%. The “difference … active minus vehicle” value (0.5% QD-vehicle QD, Week 12) was 30.7%, the “PGA response at Week 12” value (0.5% QD, 1 to <10% BSA affected at baseline) was 35% and the “Target lesion Erythema, percent change” value (0.5% QD, Early WD) was 8.33%. The “Target lesion Plaque thickness, percent change from Baseline (Mean)” value (0.5% QD, Early WD) was 0.00%, the “Target lesion Scaling, percent change” value (0.5% QD, Early WD) was −16.67% and the “PGA response at Week 12” value (0.5% QD, Fitzpatrick skin type I/II) was 25%. The “PGA response at Week 12” value (0.5% QD, Fitzpatrick skin type III/IV) was 44%, the “PGA response at Week 12” value (0.5% QD, Fitzpatrick skin type V/VI) was 25% and the “Target lesion Erythema, percent change” value (0.5% QD, Follow-up Week 14) was −63.77%. The “Target lesion Plaque thickness, percent change from Baseline (Mean)” value (0.5% QD, Follow-up Week 14) was −67.39%, the “Target lesion Scaling, percent change” value (0.5% QD, Follow-up Week 14) was −67.75% and the “Target lesion Erythema, percent change” value (0.5% QD, Follow-up/Week 16) was −73.96%. For the same compound, the “Target lesion Plaque thickness, percent change from Baseline (Mean)” value (0.5% QD, Follow-up/Week 16) was −71.53%, the “Target lesion Scaling, percent change” value (0.5% QD, Follow-up/Week 16) was −69.79% and the “Target lesion Erythema, percent change” value (0.5% QD, Week 1) was −14.25%. For the same compound, the “Target lesion Plaque thickness, percent change from Baseline (Mean)” value (0.5% QD, Week 1) was −10.22%, the “Target lesion Scaling, percent change” value (0.5% QD, Week 1) was −20.97% and the “Target lesion Erythema, percent change” value (0.5% QD, Week 2) was −28.13%. The “Target lesion Plaque thickness, percent change from Baseline (Mean)” value (0.5% QD, Week 2) was −26.04%, the “Target lesion Scaling, percent change” value (0.5% QD, Week 2) was −34.38% and the “Target lesion Erythema, percent change” value (0.5% QD, Week 4) was −35.48%. The “Target lesion Plaque thickness, percent change from Baseline (Mean)” value (0.5% QD, Week 4) was −42.47%, the “Target lesion Scaling, percent change” value (0.5% QD, Week 4) was −51.34% and the “Target lesion Erythema, percent change” value (0.5% QD, Week 8) was −50.81%. The “Target lesion Plaque thickness, percent change from Baseline (Mean)” value (0.5% QD, Week 8) was −60.75%, the “Target lesion Scaling, percent change” value (0.5% QD, Week 8) was −68.01% and the “PGA response rate (primary endpoint)” value (0.5% QD, Week 8) was 46%. For the same compound, the “Mean change in nine items of the PSD from baseline” value (0.5% QD, Week 12) was −4.1^†, the “Mean change in total target lesion grading scores from baseline” value (0.5% QD, Week 12) was −5.8* and the PASI90 response rate (0.5% QD, Week 12) was 18%. For the same compound, the “Target lesion Erythema, percent change” value (0.5% QD, Week 12) was −65.06%, the “Target lesion Plaque thickness, percent change from Baseline (Mean)” value (0.5% QD, Week 12) was −67.31% and the “Target lesion Scaling, percent change” value (0.5% QD, Week 12) was −72.76%. The “subjects with ≥4 improvement in pruritus NRS score from baseline” value (0.5% QD, Week 12) was 57%, the “PGA response rate (PGA 0 or 1 and ≥2-grade improvement)” value (0.5% QD, Week 12) was 36% and the PASI50 response rate (0.5% QD, Week 16) was 71%. For the same compound, the PASI75 response rate (0.5% QD, Week 16) was 54%, the PASI90 response rate (0.5% QD, Week 16) was 18% and the PGA treatment success (0.5% QD) was 36%. The “PGA response at Week 12” value (0.5% QD, psoriasis duration 5 years to <10 years) was 50%, the “PGA response at Week 12” value (0.5% QD, psoriasis duration 6 months to <5 years) was 29% and the “PGA response at Week 12” value (0.5% QD, psoriasis duration ≥10 years) was 33%. For the same compound, the “PGA response at Week 12” value (0.5% QD, ≥10% BSA affected at baseline) was 38%, the “subjects rating overall psoriasis symptoms very improved or moderately improved” value (0.5% groups, Week 12) was 77-80% and the “subjects rating pruritus symptoms very improved or moderately improved” value (0.5% groups, Week 12) was 73-77%. For the same compound, the “PASI75 responders who maintained response from Week 12 to Week 16” value (1% BID) was 80%, the “PGA responders who maintained response from Week 12 to Week 16” value (1% BID) was 67% and the “difference … active minus vehicle” value (1% BID-vehicle BID, Week 12) was 54.7%. For the same compound, the “PGA response at Week 12” value (1% BID, 1 to <10% BSA affected at baseline) was 67%.
